From US9034887B2, “Dihydroorotate dehydrogenase as antifungal drug target and quinazolinone-based inhibitors thereof” (F2G Limited, priority 2008, dated 2015)
In brackets after ≈: the same amount, converted by molar mass.

Columns and labels:
[1] = molecular target: T1, Recombinant DHODH from C. albicans (Candida albicans, UniProt Q874I4); experiment: DHODH inhibition screen (DCIP reduction, 600 nm), C. albicans enzyme; format: biochemical
T1 construct: His-tag; NusA (Nus-tag) fusion of vector pET43.1 (own knowledge of the vector) (N); made in house; host or cells: E. coli BL21 DE3
T1 sequence (Q874I4 57-444): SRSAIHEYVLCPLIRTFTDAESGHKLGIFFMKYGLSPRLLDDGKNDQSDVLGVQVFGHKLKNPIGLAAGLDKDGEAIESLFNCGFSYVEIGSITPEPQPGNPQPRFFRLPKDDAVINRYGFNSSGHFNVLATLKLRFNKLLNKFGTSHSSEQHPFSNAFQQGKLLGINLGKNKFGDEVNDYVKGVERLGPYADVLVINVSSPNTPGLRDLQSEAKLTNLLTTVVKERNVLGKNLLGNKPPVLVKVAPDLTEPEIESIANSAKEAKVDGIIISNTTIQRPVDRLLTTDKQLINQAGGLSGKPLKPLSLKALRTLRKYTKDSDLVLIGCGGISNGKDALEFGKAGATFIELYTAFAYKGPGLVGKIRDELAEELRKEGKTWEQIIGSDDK
Experimental: (§1) 1. The following buffer and stock solution were prepared:
(§2) Coenzyme Q2 (Sigma) was dissolved in DMSO to give a concentration of 10 mg/ml. […] The stock solution was made with 127.36 μl DHO, 127.36 μl DCIP and 318.4 μl Coenzyme Q2, made up to 80 ml with Buffer A. Final concentrations in assay wells were; DHO, 500 μM; Coenzyme Q, 50 μM; DCIP, 100 μM.
(§3) 2. […] Duplicate sets of plates were used such that one set received enzyme while a control set received no enzyme.
(§4) 3. […] Then 20 μl of DHODH solution was added to all the +enzyme plates and 20 μl of Buffer A was added to all the control −enzyme plates.
(§5) 4. 20 μl of DHO/Coenzyme Q2/DCIP solution was added to all the wells, after which plates were incubated at room temperature for […] and then read on a Tecan Safire spectrophotometer at 600 nm.
(§6) Recombinant DHODH from human or C. albicans was assayed in the same way. It is necessary to adjust the enzyme concentration and reaction time to take into account variations in activity of enzyme batches, thus the incubation time was 20 minutes for the C. albicans enzyme and 34 minutes for the human enzyme.

Aspergillus terreus = experiment: MIC in YAG medium, A. terreus; format: cell-based; details: 24 hrs at 35° C., >70% growth inhibition, read-out: MIC grade, A. terreus
Experimental: (§7) Between 1 and 5 mgs of compound were accurately weighed out into a sterile Eppendorf tube. The compound was dissolved in DMSO to give a solution containing 5 mg/mL. Tubes were stored at −20° C. until required.
(§8) On the day of testing thawed solutions were vortex mixed to ensure homogeneity. 30 μL of solution was removed and added to 570 μL of sterile water in a separate sterile Eppendorf. The thoroughly mixed solution was used to prepare a series of doubling dilutions in water, in a deep well plate. Thirteen replicate plates were prepared using a Minitrak by aspirating 20 μL from each well into eleven clear polystyrene 96 well plates.
(§9) Spores of Aspergillus spp. (Aspergillus fumigatus [two strains], Aspergillus terreus [two strains], Aspergillus niger and Aspergillus flavus) were harvested from cultures grown on Sabarauds agar for 5 days, and resuspended in PBS/Tween 80 to approx 1×10^7 cfu/mL. Each organism suspension was diluted in YAG medium (1% glucose, 1% ammonium chloride and 0.5% yeast extract) to 0.5-2×10^4 cfu/mL. 80 μL of an organism suspension was added to each well of the plate containing drug dilutions.
(§10) All plates were incubated for 24 hrs at 35° C. Growth was assessed by monitoring the optical density at 485 nm for each well. The MIC of a compound is the lowest drug concentration that inhibits growth of an organism by >70% compared with a drug free control. MICs are recorded as mg/L. In cases where the MIC of an organism is […] the MIC is repeated using a concentration range of 0.5-0.0005 mg/L.

[2] = molecular target: Recombinant A. fumigatus DHODH (Aspergillus fumigatus, UniProt Q4X169); experiment: DHODH inhibition screen (DCIP reduction, 600 nm), A. fumigatus enzyme; format: biochemical
Experimental: as §1
Buffer A: 62.5 mM TrisHCl (pH8.0), 150 mM NaCl, 10% v/v glycerol
DHO/Coenzyme Q2/DCIP solution: 19.848 mg dihydroorotate (DHO; Sigma) was dissolved in 160 μl DMSO. Coenzyme Q2 (Sigma) was dissolved in DMSO to give a concentration of 10 mg/ml. 7.236 mg 2,6-dichloroindophenol (DCIP; Sigma) was dissolved in 160 μl DMSO. The stock solution was made with 127.36 μl DHO, 127.36 μl DCIP and 318.4 μl Coenzyme Q2, made up to 80 ml with Buffer A. Final concentrations in assay wells were; DHO, 500 μM; Coenzyme Q, 50 μM; DCIP, 100 μM.
2. Compounds were aliquotted into 384-well microtitre plates at a range of dilutions to give final concentrations in the assay of […]. Duplicate sets of plates were used such that one set received enzyme while a control set received no enzyme. Since compounds are frequently dissolved in DMSO or a DMSO/water mixture, assays were set up to give a final concentration of 1% (v/v) DMSO in wells.
3. Recombinant A. fumigatus DHODH was suspended in Buffer A to give a concentration of 1435.8 ng protein in 20 μl. Then 20 μl of DHODH solution was added to all the +enzyme plates and 20 μl of Buffer A was added to all the control −enzyme plates.
as §5
as §6, with “enzyme. Compounds are screened against a fungal and human enzyme to identify compounds which are selective for the fungal enzyme.” for “enzyme.”

Aspergillus flavus [3] = experiment: MIC in RPMI medium, A. flavus; format: cell-based; details: 24-48 hrs at 35° C., >80% growth inhibition, read-out: MIC grade, A. flavus
Experimental: as §7, §8
(§11) Assays were also performed in RPMI medium. To perform MIC tests in this medium, dilutions of compounds are prepared in microtitre plates as described above. Fungal strains to be tested are grown and harvested in an identical manner to that described above, and each organism suspension was diluted in RPMI medium, containing 2% glucose and 0.135 M MOPS buffer (pH 7.0) to 0.5-2×10^4 cfu/mL, rather than in YAG medium. 80 μL of an organism suspension was added to each well of the plate containing drug dilutions.
(§12) All plates were incubated for 24-48 hrs at 35° C. Growth was assessed by monitoring the optical density at 485 nm for each well. […] The following organisms were tested: Aspergillus flavus, Aspergillus fumigatus AF293 and AF210, Aspergillus niger and Aspergillus terreus AT4 and AT49.

[4] = system: Aspergillus fumigatus AF293; experiment: MIC in RPMI medium, A. fumigatus; format: cell-based; details: 24-48 hrs at 35° C., >80% growth inhibition, read-out: MIC grade, A. fumigatus
Experimental: as §7, §8, §11, §12

A. fumigatus 210 = experiment: MIC in YAG medium, A. fumigatus 210; format: cell-based; details: Aspergillus fumigatus, 24 hrs at 35° C., >70% growth inhibition, read-out: MIC grade, A. fumigatus 210
Experimental: as §7, §8, §9, §10

Aspergillus niger [5] = experiment: MIC in YAG medium, A. niger; format: cell-based; details: 24 hrs at 35° C., >70% growth inhibition, read-out: MIC grade, A. niger
Experimental: as §7, §8, §9, §10

Aspergillus terreus AT49 = experiment: MIC in RPMI medium, A. terreus 49; format: cell-based; details: 24-48 hrs at 35° C., >80% growth inhibition, read-out: MIC grade, A. terreus 49
Experimental: as §7, §8, §11, §12

A. terreus 49 = experiment: MIC in YAG medium, A. terreus 49; format: cell-based; details: Aspergillus terreus, 24 hrs at 35° C., >70% growth inhibition, read-out: MIC grade, A. terreus 49
Experimental: as §7, §8, §9, §10

Aspergillus flavus [6] = experiment: MIC in YAG medium, A. flavus; format: cell-based; details: 24 hrs at 35° C., >70% growth inhibition, read-out: MIC grade, A. flavus
Experimental: as §7, §8, §9, §10

[7] = molecular target: T2, Recombinant DHODH from human (Homo sapiens, UniProt Q02127); experiment: DHODH inhibition screen (DCIP reduction, 600 nm), human enzyme; format: biochemical; details: Table 3, read-out: IC50 values for Compound Examples 1 to 15 identified from screens, Human
T2 construct: His-tag; NusA (Nus-tag) fusion of vector pET43.1 (own knowledge of the vector) (N); made in house; host or cells: E. coli BL21 DE3
Experimental: as §1, §2, §3, §4, §5, §6

Aspergillus niger [8] = experiment: MIC in RPMI medium, A. niger; format: cell-based; details: 24-48 hrs at 35° C., >80% growth inhibition, read-out: MIC grade, A. niger
Experimental: as §7, §8, §11, §12

Aspergillus terreus AT4 = experiment: MIC in RPMI medium, A. terreus; format: cell-based; details: 24-48 hrs at 35° C., >80% growth inhibition, read-out: MIC grade, A. terreus
Experimental: as §7, §8, §11, §12

Aspergillus fumigatus = experiment: MIC in YAG medium, A. fumigatus; format: cell-based; details: 24 hrs at 35° C., >70% growth inhibition, read-out: MIC grade, A. fumigatus
Experimental: as §7, §8, §9, §10

[9] = system: Aspergillus fumigatus AF210; experiment: MIC in RPMI medium, A. fumigatus 210; format: cell-based; details: 24-48 hrs at 35° C., >80% growth inhibition, read-out: MIC grade, A. fumigatus 210
Experimental: as §7, §8, §11, §12

T2 sequence (Q02127 31-395 limits assumed): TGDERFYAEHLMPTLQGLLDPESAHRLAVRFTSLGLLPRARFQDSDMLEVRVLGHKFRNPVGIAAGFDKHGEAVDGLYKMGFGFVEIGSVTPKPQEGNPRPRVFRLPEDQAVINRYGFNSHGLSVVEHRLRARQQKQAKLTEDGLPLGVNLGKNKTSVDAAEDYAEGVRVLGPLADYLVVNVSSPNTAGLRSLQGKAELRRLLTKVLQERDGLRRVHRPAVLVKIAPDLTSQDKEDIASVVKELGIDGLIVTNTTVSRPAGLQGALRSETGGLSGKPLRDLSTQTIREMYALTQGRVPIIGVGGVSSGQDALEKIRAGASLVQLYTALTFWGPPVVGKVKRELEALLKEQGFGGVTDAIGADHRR
Chain of Recombinant A. fumigatus DHODH (Q4X169 entry or part of it): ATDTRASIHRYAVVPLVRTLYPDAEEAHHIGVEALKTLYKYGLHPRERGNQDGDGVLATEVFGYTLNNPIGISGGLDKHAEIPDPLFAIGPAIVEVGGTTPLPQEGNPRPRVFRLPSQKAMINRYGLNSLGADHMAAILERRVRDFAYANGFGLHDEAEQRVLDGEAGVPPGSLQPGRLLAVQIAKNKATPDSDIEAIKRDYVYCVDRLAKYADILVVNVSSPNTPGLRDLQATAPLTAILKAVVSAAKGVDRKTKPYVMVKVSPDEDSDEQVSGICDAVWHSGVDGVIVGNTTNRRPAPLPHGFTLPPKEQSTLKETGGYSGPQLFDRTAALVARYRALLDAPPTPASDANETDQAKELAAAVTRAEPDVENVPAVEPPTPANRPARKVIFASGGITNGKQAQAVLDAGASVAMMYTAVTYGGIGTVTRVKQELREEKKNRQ

| SMILES | IC50 [1] [µM] | MIC (Aspergillus terreus) [µg/mL] | IC50 [2] [µM] | MIC (Aspergillus flavus [3]) [µg/mL] | MIC [4] [µg/mL] | MIC (A. fumigatus 210) [µg/mL] | MIC (Aspergillus niger [5]) [µg/mL] | MIC (Aspergillus terreus AT49) [µg/mL] | MIC (A. terreus 49) [µg/mL] | MIC (Aspergillus flavus [6]) [µg/mL] | IC50 [7] [µM] | MIC (Aspergillus niger [8]) [µg/mL] | MIC (Aspergillus terreus AT4) [µg/mL] | MIC (Aspergillus fumigatus) [µg/mL] | MIC [9] [µg/mL] |
| --- | --- | --- | --- | --- | --- | --- | --- | --- | --- | --- | --- | --- | --- | --- | --- |
| Cc1c(-c2ccc(-c3ccccc3F)cc2)nc2ccc(F)cc2c1C(=O)O [Brequinar, brequinar] | 143 | – | – | – | – | – | – | – | – | – | – | – | – | – | – |
| COc1ccc2nc(SC(C)C)n(-c3ccccc3OC)c(=O)c2c1 [Compound Example 10, 2-Isopropylsulfanyl-6-methoxy-3-(2-methoxy-phenyl)-3H-quinazolin-4-one] | – | 1 to 10 (≈ 2.81 to 28.1 µM) | 19.6 | > 10 | > 10 | 1 to 10 (≈ 2.81 to 28.1 µM) | < 1 | > 10 | < 1 | > 10 | 50.2 | 1 to 10 (≈ 2.81 to 28.1 µM) | > 10 | 1 to 10 (≈ 2.81 to 28.1 µM) | > 10 |
| CC(C)Sc1nc2ccccc2c(=O)n1-c1ccccc1N(C)C [Compound Example 11, 3-(2-Dimethylamino-phenyl)-2-isopropylsulfanyl-3H-quinazolin-4-one] | – | 1 to 10 (≈ 2.95 to 29.5 µM) | 21.2 | > 10 | 1 to 10 (≈ 2.95 to 29.5 µM) | 1 to 10 (≈ 2.95 to 29.5 µM) | 1 to 10 (≈ 2.95 to 29.5 µM) | > 10 | 1 to 10 (≈ 2.95 to 29.5 µM) | > 10 | 118 | 1 to 10 (≈ 2.95 to 29.5 µM) | > 10 | 1 to 10 (≈ 2.95 to 29.5 µM) | > 10 |
| CCSc1nc2cccc(OC)c2c(=O)n1-c1ccccc1OC [Compound Example 12, 2-Ethylsulfanyl-5-methoxy-3-(2-methoxy-phenyl)-3H-quinazolin-4-one] | – | 1 to 10 (≈ 2.92 to 29.2 µM) | 26.9 | > 10 | 1 to 10 (≈ 2.92 to 29.2 µM) | < 1 | < 1 | 1 to 10 (≈ 2.92 to 29.2 µM) | < 1 | 1 to 10 (≈ 2.92 to 29.2 µM) | 117 | < 1 | 1 to 10 (≈ 2.92 to 29.2 µM) | < 1 | 1 to 10 (≈ 2.92 to 29.2 µM) |
| CCSc1nc2ccccc2c(=O)n1-c1ccccc1CC [Compound Example 13, 3-(2-Ethyl-phenyl)-2-ethylsulfanyl-3H-quinazolin-4-one] | – | 1 to 10 (≈ 3.22 to 32.2 µM) | 36.2 | > 10 | 1 to 10 (≈ 3.22 to 32.2 µM) | 1 to 10 (≈ 3.22 to 32.2 µM) | < 1 | > 10 | 1 to 10 (≈ 3.22 to 32.2 µM) | > 10 | 86.1 | 1 to 10 (≈ 3.22 to 32.2 µM) | > 10 | 1 to 10 (≈ 3.22 to 32.2 µM) | > 10 |
| CCSc1nc2cccc(C)c2c(=O)n1-c1ccccc1OC [Compound Example 14, 2-Ethylsulfanyl-3-(2-methoxy-phenyl)-5-methyl-3H-quinazolin-4-one] | – | < 1 | 43.7 | > 10 | 1 to 10 (≈ 3.06 to 30.6 µM) | < 1 | < 1 | 1 to 10 (≈ 3.06 to 30.6 µM) | < 1 | 1 to 10 (≈ 3.06 to 30.6 µM) | 32.1 | < 1 | > 10 | < 1 | 1 to 10 (≈ 3.06 to 30.6 µM) |
| CCSc1nc2ccccc2c(=O)n1-c1ccccc1C(C)C [Compound Example 15, 2-Ethylsulfanyl-3-(2-isopropyl-phenyl)-3H-quinazolin-4-one] | – | 1 to 10 (≈ 3.08 to 30.8 µM) | 46.1 | > 10 | < 1 | < 1 | < 1 | > 10 | < 1 | > 10 | 23.2 | < 1 | > 10 | < 1 | 1 to 10 (≈ 3.08 to 30.8 µM) |
